Reference: ChEMBL document CHEMBL4765295, “Synthesis, pharmacological profile and 2D-QSAR studies of curcumin-amino acid conjugates as potential drug candidates” (Eur J Med Chem, 2020)
Several values for one entry are separate records, joined by “and”; a condition that tells them apart may be missing. Equal values may be shown once.

What was measured:
[1] = tested on: Rattus norvegicus; test: Anti-inflammatory activity in Wistar rat assessed as inhibition of carrageenan-induced paw edema at 10 mg/kg, ip pretreated for 1 hr followed by carrageenan challenge and measured after 3 hr relative to control (reference value: 0.00 +/-0.1 %); assay type: functional; conditions: time 4 hrs
[2] = Ulcerogenic activity in fasted albino mouse assessed as average number of ulcers in gastric mucosa at 10 mg/kg, po for 3 days (reference value: 0); assay type: toxicity, organism-based; conditions: in vivo, 72 h, time 3 day
[3] = tested on: Mus musculus; test: Analgesic activity in albino mouse assessed as protection at 10 mg/kg, ip measured after 30 mins by hot plate test (reference value: 0 %); assay type: functional; conditions: 0.5 h
[4] = tested on: Mus musculus; test: Analgesic activity in albino mouse assessed as forepaw licking/jumping latency time at 10 mg/kg, ip measured after 30 mins by hot plate test (reference value: 5.02 +/- 0.09 sec); assay type: functional; conditions: 0.5 h
[5] = tested on: Rattus norvegicus; test: Antiinflammatory activity in Wistar rat model of carrageenan-induced paw edema assessed as reduction in thickness of paw edema at 10 mg/kg, ip pretreated for 1 hr followed by carrageenan challenge and measured after 3 hrs (reference value: 1.79 +/-0.07 mm); assay type: functional; conditions: time 4 hrs
[6] = tested on: Mus musculus; test: Analgesic activity in albino mouse assessed reduction in acetic acid-induced abdominal writhing by measuring writing reflex at 10 mg/kg, ip pretreated for 1 hr followed by acetic acid challenge and measured starting 5 mins post acetic acid challenge for 10 mins (reference value: 42.4 +/- 1.02); assay type: functional; conditions: time 75 min, 1.25 h
[7] = tested on: Mus musculus; test: Analgesic activity in albino mouse assessed protection against acetic acid-induced abdominal writhing at 10 mg/kg, ip pretreated for 1 hr followed by acetic acid challenge and measured starting 5 mins post acetic acid challenge for 10 mins relative to control (reference value: 0 %); assay type: functional; conditions: time 75 min, 1.25 h
[8] = tested on: Mus musculus; test: Analgesic activity in albino mouse assessed as protection at 10 mg/kg, ip measured after 120 mins by hot plate test (reference value: 0 %); assay type: functional; conditions: 2 h
[9] = tested on: Mus musculus; test: Analgesic activity in albino mouse assessed as protection at 10 mg/kg, ip measured after 90 mins by hot plate test (reference value: 0 %); assay type: functional; conditions: 1.5 h
[10] = tested on: Rattus norvegicus; test: Antiinflammatory activity in Wistar rat model of carrageenan-induced paw edema assessed as reduction in thickness of paw edema at 10 mg/kg, ip pretreated for 1 hr followed by carrageenan challenge and measured after 2 hrs (reference value: 2.06 +/-0.09 mm); assay type: functional; conditions: time 3 hrs
[11] = tested on: Staphylococcus aureus; test: Antibacterial activity against Staphylococcus aureus ATCC 25923 incubated for 18 hrs by agar dilution method; assay type: functional
[12] = tested on: Rattus norvegicus; test: Antiinflammatory activity in Wistar rat model of carrageenan-induced paw edema assessed as reduction in thickness of paw edema at 10 mg/kg, ip pretreated for 1 hr followed by carrageenan challenge and measured after 4 hrs (reference value: 1.40 +/-0.10 mm); assay type: functional; conditions: time 5 hrs
[13] = tested on: Rattus norvegicus; test: Antiinflammatory activity in Wistar rat model of carrageenan-induced paw edema assessed as reduction in thickness of paw edema at 10 mg/kg, ip pretreated for 1 hr followed by carrageenan challenge and measured after 1 hr (reference value: 2.41 +/-0.05 mm); assay type: functional; conditions: time 1 hr after carrageenan
[14] = tested on: Rattus norvegicus; test: Anti-inflammatory activity in Wistar rat assessed as inhibition of carrageenan-induced paw edema at 10 mg/kg, ip pretreated for 1 hr followed by carrageenan challenge and measured after 24 hr relative to control (reference value: 0.00 +/-0.3 %); assay type: functional; conditions: time 25 hrs
[15] = Ulcerogenic activity in fasted albino mouse assessed as ulcer index in gastric mucosa at 10 mg/kg, po for 3 days (reference value: 0); assay type: toxicity, organism-based; conditions: in vivo, 72 h, time 3 day
[16] = tested on: Candida albicans; test: Antifungal activity against Candida albicans incubated for 18 to 24 hrs by CLSI method; assay type: functional; conditions: time 18-24 hrs
[17] = tested on: Mus musculus; test: Analgesic activity in albino mouse assessed protection against acetic acid-induced abdominal writhing at 10 mg/kg, ip pretreated for 1 hr followed by acetic acid challenge and measured starting 5 mins post acetic acid challenge for 10 mins relative to indomethacin; assay type: functional; conditions: time 75 min, 1.25 h
[18] = tested on: Peritoneal macrophage; test: Antiinflammatory activity in […] mouse Peritoneal macrophages assessed as reduction in LPS-induced NO production by measuring reduction in stimulation index at 10 uM preincubated for 1 hr followed by LPS stimulation measured after 24 hrs by Griess method (reference value: 27.31 +/- 2.56 uM); assay type: functional; conditions: time 25 hrs
[19] = tested on: Mus musculus; test: Analgesic activity in albino mouse assessed as protection at 10 mg/kg, ip measured after 120 mins by hot plate test relative to indomethacin; assay type: functional; conditions: 2 h
[20] = tested on: Mus musculus; test: Analgesic activity in albino mouse assessed as forepaw licking/jumping latency time at 10 mg/kg, ip measured after 120 mins by hot plate test (reference value: 2.62 +/- 0.06 sec); assay type: functional; conditions: 2 h
[21] = tested on: Pseudomonas aeruginosa; test: Antibacterial activity against Pseudomonas aeruginosa ATCC 27853 incubated for 18 hrs by agar dilution assay; assay type: functional
[22] = Ulcerogenic activity in fasted albino mouse assessed as average severity of ulcers in gastric mucosa at 10 mg/kg, po for 3 days (reference value: 0); assay type: toxicity, organism-based; conditions: in vivo, 72 h, time 3 day
[23] = tested on: Peritoneal macrophage; test: Antiinflammatory activity in […] mouse Peritoneal macrophages assessed as inhibition of LPS-induced NO production at 10 uM preincubated for 1 hr followed by LPS stimulation measured after 24 hrs by Griess method relative to control (reference value: 0.0 %); assay type: functional; set-up: scale not given: the % may be the effect or the level left; conditions: time 25 hrs
[24] = tested on: Mus musculus; test: Analgesic activity in albino mouse assessed as forepaw licking/jumping latency time at 10 mg/kg, ip measured after 60 mins by hot plate test (reference value: 3.42 +/- 0.03 sec); assay type: functional; conditions: 1 h
[25] = tested on: Rattus norvegicus; test: Anti-inflammatory activity in Wistar rat assessed as inhibition of carrageenan-induced paw edema at 10 mg/kg, ip pretreated for 1 hr followed by carrageenan challenge and measured after 2 hr relative to control (reference value: 0.00 +/-0.03 %); assay type: functional; conditions: time 3 hrs
[26] = tested on: Mus musculus; test: Analgesic activity in albino mouse assessed as protection at 10 mg/kg, ip measured after 60 mins by hot plate test (reference value: 0 %); assay type: functional; conditions: 1 h
[27] = tested on: Splenocyte; test: Immunomodulatory activity in Swiss albino mouse splenocytes assessed as cell viability at 10 uM by measuring inhibition of stimulation index incubated for 72 hrs in presence of mitogenic stimulus phytohaemagglutinin by MTT assay relative to indomethacin; assay type: functional; conditions: read-out: Activity
[28] = tested on: Rattus norvegicus; test: Anti-inflammatory activity in Wistar rat assessed as inhibition of carrageenan-induced paw edema at 10 mg/kg, ip pretreated for 1 hr followed by carrageenan challenge and measured after 4 hr relative to indomethacin; assay type: functional; conditions: time 5 hrs
[29] = tested on: Streptococcus pyogenes; test: Antibacterial activity against Streptococcus pyogenes ATCC 19615 incubated for 18 hrs by agar dilution method; assay type: functional
[30] = Toxicity in albino mouse assessed as induction of toxic symptoms at 50 to 100 mg/kg, ip measured after 24 hrs; assay type: organism-based; conditions: in vivo, dose 50-100 mg/kg
[31] = Ulcerogenic activity in fasted albino mouse assessed as incidence of gastric ulceration at 10 mg/kg, po for 3 days (reference value: 0 %); assay type: toxicity, organism-based; conditions: in vivo, 72 h, time 3 day
[32] = tested on: Mus musculus; test: Analgesic activity in albino mouse assessed as forepaw licking/jumping latency time at 10 mg/kg, ip measured after 90 mins by hot plate test (reference value: 2.72 +/- 0.01 sec); assay type: functional; conditions: 1.5 h
[33] = tested on: Rattus norvegicus; test: Antiinflammatory activity in Wistar rat model of carrageenan-induced paw edema assessed as reduction in thickness of paw edema at 10 mg/kg, ip pretreated for 1 hr followed by carrageenan challenge and measured after 24 hrs (reference value: 0.83 +/-0.08 mm); assay type: functional; conditions: time 25 hrs
[34] = tested on: Splenocyte; test: Immunomodulatory activity in Swiss albino mouse splenocytes assessed as cell viability at 10 uM by measuring stimulation index incubated for 72 hrs in presence of mitogenic stimulus phytohaemagglutinin by MTT assay (reference value: 1.00 +/- 0.24); assay type: functional
[35] = tested on: Rattus norvegicus; test: Anti-inflammatory activity in Wistar rat assessed as inhibition of carrageenan-induced paw edema at 10 mg/kg, ip pretreated for 1 hr followed by carrageenan challenge and measured after 4 hr relative to control (reference value: 0.00 +/-0.4 %); assay type: functional; conditions: time 5 hrs
[36] = tested on: Rattus norvegicus; test: Anti-inflammatory activity in Wistar rat assessed as inhibition of carrageenan-induced paw edema at 10 mg/kg, ip pretreated for 1 hr followed by carrageenan challenge and measured after 1 hr relative to control (reference value: 0.00 +/-0.02 %); assay type: functional; conditions: time 2 hrs
[37] = tested on: Salmonella typhimurium; test: Antibacterial activity against Salmonella typhimurium ATCC 19430 incubated for 18 hrs by agar dilution assay; assay type: functional, Salmonella enterica subsp. enterica serovar Typhimurium; conditions: Salmonella enterica
[38] = tested on: A549; test: Antiproliferative activity against human A549 cells assessed as inhibition of cell growth after 72 hrs by MTT assay; assay type: functional, cell-based; conditions: A549, 72 h
[39] = tested on: PC-3; test: Antiproliferative activity against human PC3 cells assessed as inhibition of cell growth after 72 hrs by MTT assay; assay type: functional, cell-based; conditions: PC-3, 72 h
[40] = tested on: MCF7; test: Antiproliferative activity against human MCF7 cells assessed as inhibition of cell growth after 72 hrs by MTT assay; assay type: functional, cell-based; conditions: MCF7, 72 h

MIC [11]	MIC [16]	MIC [21]	MIC [29]	MIC [37]	SMILES	inhibition in vivo at 10 mg/kg [1]	Activity [5]	Activity [10]	Activity [12]	Activity [13]	inhibition in vivo at 10 mg/kg [14]	Activity [18]	Activity [23]	inhibition in vivo at 10 mg/kg [25]	viability at 10 µM [27]	inhibition in vivo at 10 mg/kg [28]	Activity [33]	Activity_index [34]	inhibition in vivo at 10 mg/kg [35]	inhibition in vivo at 10 mg/kg [36]	other results
2 µg/mL and 2.41 µM	1 µg/mL and 1.2 µM	1 µg/mL and 1.2 µM	2 µg/mL and 2.41 µM	2 µg/mL and 2.41 µM	COc1cc(/C=C/C(=O)/C=C(O)/C=C/c2ccc(OC(=O)[C@H](CCSC)NC(=O)OC(C)(C)C)c(OC)c2)ccc1OC(=O)[C@H](CCSC)NC(=O)OC(C)(C)C	44%	1.01 mm	1.31 mm	0.17 mm	1.59 mm	23%	16.16 µM	40.84%	36%	88.5%	101%	0.64 mm	1.37	88%	34%	Activity [2]: 0; Activity [3]: 14.3%; Time [4]: 5.74 s; Activity [6]: 12.3; Activity [7]: 71%; Activity [8]: 47.3%; Activity [9]: 56.6%; UI [15]: 0; Activity [17]: 115.3%; Activity [19]: 112.6%; Time [20]: 3.86 s; Activity [22]: 0; Time [24]: 5.84 s; Activity [26]: 70.8%; Activity [30]: Non-Toxic; Activity [31]: 0%; Time [32]: 4.26 s
0.125 µg/mL and 0.214 µM	1 µg/mL and 1.71 µM	0.5 µg/mL and 0.857 µM	0.25 µg/mL and 0.428 µM	0.25 µg/mL and 0.428 µM	COc1cc(/C=C/C(=O)/C=C(O)/C=C/c2ccc(OC(=O)C(C)N)c(OC)c2)ccc1OC(=O)C(C)N.Cl.Cl (centres undefined)	55%	0.81 mm	0.94 mm	0.22 mm	1.11 mm	28%	19.75 µM	27.69%	54%	63.2%	97%	0.6 mm	1.91	84%	54%	IC50 [38]: 22.2 µM; IC50 [39]: 21.7 µM; IC50 [40]: 9.79 µM
0.5 µg/mL and 0.857 µM	0.5 µg/mL and 0.857 µM	0.25 µg/mL and 0.428 µM	0.5 µg/mL and 0.857 µM	0.5 µg/mL and 0.857 µM	COc1cc(/C=C/C(=O)/C=C(O)/C=C/c2ccc(OC(=O)[C@H](C)N)c(OC)c2)ccc1OC(=O)[C@H](C)N.Cl.Cl	53%	0.85 mm	1.19 mm	0.47 mm	1.51 mm	16%	14.68 µM	46.24%	42%	106%	76%	0.7 mm	1.14	66%	37%	IC50 [38]: 21.7 µM; IC50 [39]: 31.5 µM; IC50 [40]: 10.7 µM
					COc1cccc2c1C(=O)c1c(O)c3c(c(O)c1C2=O)C[C@@](O)(C(=O)CO)C[C@@H]3O[C@H]1C[C@H](N)[C@H](O)[C@H](C)O1 [DOXORUBICIN]																IC50 [39]: 38 µM
